Data as given in ChEMBL document CHEMBL1201862, “PubChem BioAssay data set” (2004).
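Step 1: Grow cells in 96-well plates. Step 2: Expose to compound for 48 hours at 5 concentrations. Step 3: Interpolate endpoints linearly; if unreached, use highest concentration. Abbreviation: GI50, concentration required for 50% inhibition of growth.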 Active and inactive are the calls of the source. Cut-off read from the data, not from the text of the source: active = GI50 up to about 1.1 µM and inactive = higher.

Columns and labels:
Experiment in all cases: NCI-60 cell line screen, 48 h
[1] = system: A498
[2] = system: ACHN
[3] = system: COLO 205
[4] = system: DMS-114
[5] = system: HCC 2998
[6] = system: HCT-15
[7] = system: HL-60
[8] = system: NCI-H226
[9] = system: NCI-H460
[10] = system: RPMI-8226
[11] = system: SF-268
[12] = system: SF-539
[13] = system: SK-MEL-2
[14] = system: SN12C
[15] = system: SNB-75
[16] = system: SR
[17] = system: TK-10
[18] = system: UACC-257
[19] = system: MDA-N
[20] = system: BT-549

Compound	GI50 [1]	GI50 [2]	GI50 [3]	GI50 [4]	GI50 [5]	GI50 [6] [µM]	GI50 [7]	GI50 [8]	GI50 [9]	GI50 [10]	GI50 [11]	GI50 [12]	GI50 [13]	GI50 [14]	GI50 [15]	GI50 [16]	GI50 [17]	GI50 [18]	GI50 [19]	GI50 [20]
Cc1cc(C)cc(NC(N)=S)c1	> 100 µM (inactive)	> 100 µM (inactive)	26.7 µM (inactive)	45.3 µM (inactive)	> 100 µM (inactive)	17.9	30.8 µM (inactive)	> 100 µM (inactive)	> 100 µM (inactive)	31.1 µM (inactive)	53.7 µM (inactive)	> 100 µM (inactive)	> 100 µM (inactive)	> 100 µM (inactive)	> 100 µM (inactive)	33.5 µM (inactive)	> 100 µM (inactive)	36.4 µM (inactive)	–	–
COc1ccc(N2C(=O)C3c4[nH]c5ccccc5c4C4CCCCCCC4C3C2=O)cc1 (configuration not stated)	25.5 µM (inactive)	6.38 µM (inactive)	13.2 µM (inactive)	8.71 µM (inactive)	11.2 µM (inactive)	6.71	22.5 µM (inactive)	12.4 µM (inactive)	7.18 µM (inactive)	50.4 µM (inactive)	12.7 µM (inactive)	7.74 µM (inactive)	26.2 µM (inactive)	4.79 µM (inactive)	11.9 µM (inactive)	6.52 µM (inactive)	20.1 µM (inactive)	38.9 µM (inactive)	–	–
O=S(=O)(O)c1cc(O)c2c(O)c(/N=N/c3ccc(/C=C/c4ccc(/N=N/c5c(S(=O)(=O)O)cc6cc(S(=O)(=O)O)cc(O)c6c5O)cc4S(=O)(=O)O)c(S(=O)(=O)O)c3)c(S(=O)(=O)O)cc2c1	> 100 µM (inactive)	> 100 µM (inactive)	> 100 µM (inactive)	56.6 µM (inactive)	> 100 µM (inactive)	> 100	> 100 µM (inactive)	> 100 µM (inactive)	> 100 µM (inactive)	> 100 µM (inactive)	> 100 µM (inactive)	> 100 µM (inactive)	> 100 µM (inactive)	> 100 µM (inactive)	> 100 µM (inactive)	> 100 µM (inactive)	> 100 µM (inactive)	> 100 µM (inactive)	–	–
CC12c3ccccc3C(OC=O)(c3ccccc31)C1(C)c3ccccc3C2(OC=O)c2ccccc21	> 100 µM (inactive)	> 100 µM (inactive)	> 100 µM (inactive)	> 100 µM (inactive)	> 100 µM (inactive)	> 100	> 100 µM (inactive)	> 100 µM (inactive)	81.3 µM (inactive)	> 100 µM (inactive)	> 100 µM (inactive)	–	> 100 µM (inactive)	> 100 µM (inactive)	81.1 µM (inactive)	18.4 µM (inactive)	> 100 µM (inactive)	> 100 µM (inactive)	–	–
CC(C)(O)[C@@H]1CC[C@@]2(C)CCC[C@H](O)[C@H]2C1	> 100 µM (inactive)	> 100 µM (inactive)	> 100 µM (inactive)	> 100 µM (inactive)	> 100 µM (inactive)	> 100	> 100 µM (inactive)	> 100 µM (inactive)	> 100 µM (inactive)	> 100 µM (inactive)	> 100 µM (inactive)	> 100 µM (inactive)	> 100 µM (inactive)	> 100 µM (inactive)	> 100 µM (inactive)	> 100 µM (inactive)	> 100 µM (inactive)	> 100 µM (inactive)	–	–
O=C(O)C1Cc2[nH]cnc2CN1 (configuration not stated)	> 100 µM (inactive)	> 100 µM (inactive)	> 100 µM (inactive)	> 100 µM (inactive)	> 100 µM (inactive)	> 100	> 100 µM (inactive)	> 100 µM (inactive)	> 100 µM (inactive)	> 100 µM (inactive)	> 100 µM (inactive)	> 100 µM (inactive)	> 100 µM (inactive)	> 100 µM (inactive)	> 100 µM (inactive)	> 100 µM (inactive)	> 100 µM (inactive)	> 100 µM (inactive)	–	–
COc1cc(CC(C)N)ccc1O (configuration not stated)	> 100 µM (inactive)	> 100 µM (inactive)	> 100 µM (inactive)	> 100 µM (inactive)	> 100 µM (inactive)	> 100	> 100 µM (inactive)	> 100 µM (inactive)	> 100 µM (inactive)	> 100 µM (inactive)	> 100 µM (inactive)	> 100 µM (inactive)	> 100 µM (inactive)	> 100 µM (inactive)	> 100 µM (inactive)	> 100 µM (inactive)	> 100 µM (inactive)	> 100 µM (inactive)	> 100 µM (inactive)	–
Cc1ccc(/C=N/NS(=O)(=O)c2ccccc2)c(C)c1	> 100 µM (inactive)	> 100 µM (inactive)	> 100 µM (inactive)	> 100 µM (inactive)	> 100 µM (inactive)	> 100	> 100 µM (inactive)	> 100 µM (inactive)	> 100 µM (inactive)	> 100 µM (inactive)	> 100 µM (inactive)	> 100 µM (inactive)	> 100 µM (inactive)	> 100 µM (inactive)	> 100 µM (inactive)	> 100 µM (inactive)	> 100 µM (inactive)	80 µM (inactive)	–	–
CCOC(=O)C(Cc1ccc([N+](=O)[O-])cc1)NC(=O)CC1c2ccccc2-c2ccccc21 (configuration not stated)	> 100 µM (inactive)	20.7 µM (inactive)	> 100 µM (inactive)	37.6 µM (inactive)	> 100 µM (inactive)	> 100	> 100 µM (inactive)	> 100 µM (inactive)	> 100 µM (inactive)	> 100 µM (inactive)	50.7 µM (inactive)	27.9 µM (inactive)	45.1 µM (inactive)	67.8 µM (inactive)	26.1 µM (inactive)	> 100 µM (inactive)	32.7 µM (inactive)	24.5 µM (inactive)	–	–
CC1CN(c2ccc(Cl)cc2)CC(C)(C)OC(=O)O1 (configuration not stated)	–	> 100 µM (inactive)	> 100 µM (inactive)	> 100 µM (inactive)	> 100 µM (inactive)	> 100	> 100 µM (inactive)	> 100 µM (inactive)	> 100 µM (inactive)	> 100 µM (inactive)	> 100 µM (inactive)	> 100 µM (inactive)	> 100 µM (inactive)	> 100 µM (inactive)	> 100 µM (inactive)	> 100 µM (inactive)	> 100 µM (inactive)	> 100 µM (inactive)	–	–
O=C(O)CCSC(=O)Nc1cccc(F)c1	> 100 µM (inactive)	> 100 µM (inactive)	> 100 µM (inactive)	66.5 µM (inactive)	> 100 µM (inactive)	> 100	23.3 µM (inactive)	> 100 µM (inactive)	> 100 µM (inactive)	> 100 µM (inactive)	24.3 µM (inactive)	> 100 µM (inactive)	> 100 µM (inactive)	> 100 µM (inactive)	–	> 100 µM (inactive)	> 100 µM (inactive)	> 100 µM (inactive)	–	–
CC(C)(c1ccccc1)c1ccc(Oc2ccc(C#N)c(C#N)c2)cc1	> 10 µM (inactive)	33.8 µM (inactive)	> 10 µM (inactive)	4.98 µM (inactive)	> 10 µM (inactive)	> 10	20.5 µM (inactive)	> 10 µM (inactive)	> 10 µM (inactive)	10.2 µM (inactive)	43.5 µM (inactive)	> 10 µM (inactive)	> 10 µM (inactive)	> 10 µM (inactive)	> 10 µM (inactive)	6.41 µM (inactive)	> 10 µM (inactive)	> 10 µM (inactive)	–	–
O=C1C2C3CCC(C2C(=O)N1CO)C1C2C(=O)N(CO)C(=O)C2C31 (configuration not stated)	> 100 µM (inactive)	> 44.1 µM (inactive)	40.4 µM (inactive)	25.6 µM (inactive)	–	26.5	12 µM (inactive)	> 81.7 µM (inactive)	22.7 µM (inactive)	21.1 µM (inactive)	> 53.5 µM (inactive)	43 µM (inactive)	36 µM (inactive)	> 47.2 µM (inactive)	50.6 µM (inactive)	13.4 µM (inactive)	> 100 µM (inactive)	> 100 µM (inactive)	–	–
COC(=O)[C@]1(C)CCC[C@]2(C)C3CC4OOC3(C=C4C(C)C)CCC21 (some centres not stated)	11.4 µM (inactive)	17.4 µM (inactive)	19.7 µM (inactive)	13.7 µM (inactive)	16.5 µM (inactive)	16.5	2.07 µM (inactive)	19.6 µM (inactive)	12.4 µM (inactive)	12.7 µM (inactive)	15.4 µM (inactive)	17 µM (inactive)	17.2 µM (inactive)	16.8 µM (inactive)	–	9.66 µM (inactive)	23.4 µM (inactive)	17.3 µM (inactive)	–	–
COc1cc(C2c3cc4c(cc3[C@@H](Nc3ccc(F)cc3)C3COC(=O)[C@H]23)OCO4)cc(OC)c1O (some centres not stated)	1.89 µM (inactive)	0.476 µM (active)	2.03 µM (inactive)	2.64 µM (inactive)	3.28 µM (inactive)	3.56	–	0.897 µM (active)	0.0468 µM (active)	1.1 µM (active)	3.17 µM (inactive)	1.86 µM (inactive)	6.49 µM (inactive)	1.57 µM (inactive)	1.91 µM (inactive)	0.106 µM (active)	4.88 µM (inactive)	6.05 µM (inactive)	8.93 µM (inactive)	2.61 µM (inactive)
